The text below walks through data of US20240262842A1, “SMALL MOLECULE INHIBITORS OF KRAS G12C MUTANT” (Merck Sharp & Dohme LLC, priority 2021, published 2024).

In one test the target is biotinylated KRAS G12C protein (GMP-PNP loaded) and GST-tagged Ras binding domain of c-RAF (Homo sapiens, UniProt P01116, C118S/C51S/C80L/G12C). Put plainly: RAS:RAF-RBD binding assay (TR-FRET). The note with it: 30-minute incubation of compound with KRAS G12C before RAF-RBD; Table 4; read-out: IC50.
Chain of biotinylated KRAS G12C protein (GMP-PNP loaded) and GST-tagged Ras binding domain of c-RAF (P01116 with tags, fused parts or gaps isoform P01116-2 G12C/C51S/C80L/C118S): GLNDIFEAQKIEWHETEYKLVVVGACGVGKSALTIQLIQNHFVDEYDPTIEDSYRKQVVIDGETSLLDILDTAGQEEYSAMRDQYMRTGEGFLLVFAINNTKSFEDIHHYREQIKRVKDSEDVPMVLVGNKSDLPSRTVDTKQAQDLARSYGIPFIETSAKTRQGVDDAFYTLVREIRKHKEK
Consider `Cc1nc2c3c(c(C(F)(F)F)cc2n1C)-c1cccn2c(C(=O)c4cc(F)c(NC(=O)/C=C/CN5C[C@H](O)[C@@H](F)C5)c(F)c4)cc(c12)CCO3` [Example 275, (3S,4S)-1-((E)-4-((4-(9,10-dimethyl-7-(trifluorometh-yl)-13,14-dihydro-9H-imidazo[4″,5″:5′,6′]benzo-[1′,2′:2,3]oxocino[4,5,6-hi]indolizine-2-carbonyl)-2,6-difluorophenyl)amino)-4-oxobut-2-en-1-yl)-3-fluoro-4-hydroxypyrrol-idin-1-ium 2,2,2-trifluoro-acetate], for which the IC50 (in general, the concentration at which inhibition is half-maximal) amounted to 57.5 nM.

Regarding `Cc1nc2c3c(c(C(F)(F)F)cc2n1C)-c1cccn2c(C(=O)c4cc(F)c(NC(=O)/C=C/CN5CCC[C@H]5CO)c(F)c4)cc(c12)CCO3` [Example 256, mono(2-(3,5~difluoro-4-((E)-4-((2S)-2-(hydroxy-methyl)pyrrolidin-1-ium-1-yl)but-2-enamido)ben-zoyl)-9,10-dimethyl-7-(trifluoromethyl)-13,14-dihydro-9H-imidazo-[4,5″:5′,6′]benzo[1′,2′: 2,3]oxocino[4,5,6-hi]-indolizin-11-ium) mono-(2,2,2-trifluoroacetate)], the IC50 was found to be 4.7 nM.

On to `Cc1nc2c3c(c(C(F)(F)F)cc2n1C)-c1cccn2c(C(=O)c4cc(F)c(NC(=O)/C=C/CN5CCC[C@@]5(C)C(C)O)c(F)c4)cc(c12)CCO3` (single isomer, unassigned) [Example 259], for which the IC50 came out at 14.2 nM.

In the case of `CN1CCc2cc(C(=O)c3cc(F)c(NC(=O)/C=C/CNC4(C)COC4)c(F)c3)n3cccc(c23)-c2c(C(F)(F)F)cc3c(cnn3C)c21` [Example 283, (E)-N-(4-(9,12-dimethyl-7-(trifluoromethyl)-9,12,13,14-tetrahydroindolizino[8′,1′:4,5,6]azocino[2,3-e]indazole-2-carbonyl)-2,6-difluorophenyl)-4-((3-methyloxetan-3-yl)amino)but-2-enamide], the IC50 was determined as 64.7 nM.

Regarding `Cc1nc2c3c(c(C(F)(F)F)cc2n1C)-c1cccn2c(C(=O)c4cc(F)c(NC(=O)/C=C/CN5CCC5CC(C)(C)O)c(F)c4)cc(c12)CCN3C` (single isomer, unassigned) [Example 299, (E)-1-(4-((2,6-difluoro-4-(9,10,12-trimethyl-7-(trifluoromethyl)-9,12,13,14-tetrahydro-imidazo[4″,5″:5′,6′]benzo-[1′,2′:2,3]azocino[4,5,6-hi]indolizine-2-carbonyl)-phenyl)amino)-4-oxobut-2-en-1-yl)-2-(2-hydroxy-2-methylpropyl)azetidin-1-ium 2,2,2-trifluoroacetate], the IC50 came out at 52.5 nM.

With `Cc1nc2c3c(c(C(F)(F)F)cc2n1C)-c1cccn2c(C(=O)c4cc(F)c(NC(=O)/C=C/CNC5CCOC5)c(F)c4)cc(c12)CCO3` (single isomer, unassigned) [Example 270, (E)-N-(4-(9,10-dimethyl-7-(trifluoromethyl)-13,14-dihydro-9H-imidazo-[4″,5″:5′,6′]benzo[1′,2′: 2,3]oxocino[4,5,6-hi]-indolizine-2-carbonyl)-2,6-difluorophenyl)-4-((tetrahydrofuran-3-yl)-amino)but-2-enamide], the IC50 is 12 nM.

In the case of `CO[C@@H]1CCCC[C@@H]1NC/C=C/C(=O)Nc1c(F)cc(C(=O)c2cc3c4c(cccn24)-c2c(C(F)(F)F)cc4c(nc(C)n4C)c2OCC3)cc1F` [Example 266, (E)-N-(4-(9,10-dimethyl-7-(trifluoromethyl)-13,14-dihydro-9H-imidazo-[4″,5″:5′,6′]benzo[1′,2′: 2,3]oxocino[4,5,6-hi]-indolizine-2-carbonyl)-2,6-difluorophenyl)-4-(((1S,2R)-2-methoxy-cyclohexyl)amino)but-2-enamide], the IC50 amounted to 16.1 nM.

With `Cc1nc2c3c(c(C(F)(F)F)cc2n1C)-c1cccn2c(C(=O)c4cc(F)c(NC(=O)/C=C/CN5CC6(CCCOC6)C5)c(F)c4)cc(c12)CCO3` [Example 253, mono((E)-2-(4-(4-(6-oxa-2-azaspiro[3.5]nonan-2-ium-2-yl)but-2-enamido)-3,5-difluorobenzoyl)-9,10-dimethyl-7-(trifluorometh-yl)-13,14-dihydro-9H-imidazo[4″,5″:5′,6′]benzo-[1′,2′:2,3]oxocino[4,5,6-hi]indolizin-11-ium) mono-(2,2,2-trifluoroacetate)], the IC50 worked out at 24.8 nM.

Regarding `Cc1nc2c3c(c(C(F)(F)F)cc2n1C)-c1cccn2c(C(=O)c4cc(F)c(NC(=O)/C=C/CN5CC6C(CO)C6C5)c(F)c4)cc(c12)CCO3` (single isomer, unassigned) [Example 278, (E)-3-(4-((4-(9,10-dimeth-yl-7-(trifluoromethyl)-13,14-dihydro-9H-imidazo-[4″,5″:5′,6′]-benzo[1′,2′:2,3]oxocino-[4,5,6-hi]indolizine-2-carbonyl)-2,6-difluoro-phenyl)amino)-4-oxobut-2-en-1-yl)-6-(hydroxy-methyl)-3-azabicyclo-[3.1.0]hexan-3-ium 2,2,2-trifluoroacetate], the IC50 stood at 44.3 nM.

Regarding `Cc1nc2c3c(c(C(F)(F)F)cc2n1C)-c1cccn2c(C(=O)c4cc(F)c(NC(=O)/C=C/CN5CC(F)C5)c(F)c4)cc(c12)CCN3C` [Example 285, (E)-N-(2,6-difluoro-4-(9,10,12-trimethyl-7-(trifluoromethyl)-9,12,13,14-tetrahydroimidazo[4″,5″:5′,6′]benzo[1′,2′:2,3]azocino[4,5,6-hi]indolizine-2-carbonyl)phenyl)-4-(3-fluoroazetidin-1-yl)but-2-enamide], the IC50 amounted to 85 nM.

As for `CO[C@H]1CCCC[C@H]1NC/C=C/C(=O)Nc1c(F)cc(C(=O)c2cc3c4c(cccn24)-c2c(C(F)(F)F)cc4c(nc(C)n4C)c2OCC3)cc1F` [Example 268, (E)-N-(4-(9,10-dimethyl-7-(trifluoromethyl)-13,14-dihydro-9H-imidazo-[4″,5″:5′,6′]benzo[1′,2′: 2,3]oxocino[4,5,6-hi]-indolizine-2-carbonyl)-2,6-difluorophenyl)-4-(((1R,2S)-2-methoxy-cyclohexyl)amino)but-2-enamide], the IC50 was 12.8 nM.

`Cc1nc2c3c(c(C(F)(F)F)cc2n1C)-c1cccn2c(C(=O)c4cc(F)c(NC(=O)/C(F)=C/CNC5(C)CCOCC5)c(F)c4)cc(c12)CCO3` (atropisomer, axis not shown) [Example 296, (Z)-N-(4-(9,10-dimethyl-7-(trifluoromethyl)-13,14-dihydro-9H-imidazo[4″,5″:5′,6′]benzo[1′,2′:2,3]oxocino[4,5,6-hi]indolizine-2-carbonyl)-2,6-difluorophenyl)-2-fluoro-4-((4-methyltetrahydro-2H-pyran-4-yl)amino)but-2-enamide]: the IC50 turned out to be 14.8 nM.

The test is the same for the next values; noted with them: IC50, 30-minute incubation of compound with KRAS G12C before RAF-RBD; Table 4.
As to `CO[C@H]1CC[C@H](NC/C=C/C(=O)Nc2ccc(C(=O)c3cn4c5c(cccc35)-c3c(C(F)(F)F)cc5c(nc(C)n5C)c3OCC4)cc2)CC1` [Example 263, mono(2-(4-((E)-4-(((1r, 4r)-4-methoxycyclohexyl)-ammonio)but-2-enamido)-benzoyl)-8,9-dimethyl-6-(trifluoromethyl)-12,13-dihydro-8H-imidazo-[4″,5″:3′,4′]benzo[1′,2′: 7,8][1,4]oxazocino[6,5,4-hi]indol-10-ium) mono-(2,2,2-trifluoroacetate)], the IC50 was 9.25 nM.
